The source of these data is article PMC6934184, “Selective DNA-PKcs inhibition extends the therapeutic index of localized radiotherapy and chemotherapy” (The Journal of Clinical Investigation, 2019).

The target of this assay is T1, GRK7 (Homo sapiens, UniProt Q8WTQ7).
T1 construct: purchased Thermo Fisher Scientific (Life Technologies) SelectScreen
Description: SelectScreen Z'LYTE. In kind it is biochemical. The gist of the method: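 NU5455 was profiled across the SelectScreen Broad panel of kinase activity and binding assays. Z'LYTE reactions such as CSF1R ran at apparent Km ATP, while the Adapta CAMK1 assay used ATP listed as 10. Values are given as percent.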

T1 sequence (Q8WTQ7 whole entry): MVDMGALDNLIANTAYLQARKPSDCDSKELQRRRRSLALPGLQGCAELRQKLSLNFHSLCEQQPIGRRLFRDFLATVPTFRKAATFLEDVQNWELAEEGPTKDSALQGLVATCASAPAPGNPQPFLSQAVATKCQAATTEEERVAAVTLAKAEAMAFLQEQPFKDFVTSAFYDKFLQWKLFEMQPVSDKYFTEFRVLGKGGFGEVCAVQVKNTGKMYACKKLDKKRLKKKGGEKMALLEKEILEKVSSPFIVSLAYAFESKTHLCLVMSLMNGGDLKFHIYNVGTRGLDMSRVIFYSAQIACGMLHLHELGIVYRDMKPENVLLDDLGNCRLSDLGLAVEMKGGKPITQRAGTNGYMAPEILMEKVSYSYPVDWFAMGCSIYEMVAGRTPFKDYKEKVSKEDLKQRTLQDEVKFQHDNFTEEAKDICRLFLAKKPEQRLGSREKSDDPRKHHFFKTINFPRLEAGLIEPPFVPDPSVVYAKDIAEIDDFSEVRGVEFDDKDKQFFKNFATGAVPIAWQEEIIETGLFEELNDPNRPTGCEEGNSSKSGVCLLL

The inhibition is the drop in the measured response relative to a control, in per cent. As for `CN(C(=O)CN1CCOCC1)c1ccc2sc3c(-c4cccc5c(=O)cc(N6CC7CCC(C6)O7)oc45)cccc3c2c1` [NU5455], the inhibition at 1 µM is -3%.
